Laboratory results reported in paper PMC5888987 (Carcinogenesis, 2018).

Key:
Assay type in all cases: biochemical
DNMT1 = DNMT1 (Homo sapiens, UniProt P26358); experiment: AlphaScreen methyltransferase assay with […] SAM
DNMT3A = DNMT3A (Homo sapiens, UniProt Q9Y6K1); experiment: AlphaScreen methyltransferase assay with […] SAM
mTOR = mTOR (Homo sapiens, UniProt P42345); experiment: FRET-based Z-LYTE kinase assay
DNMT3B = DNMT3B (Homo sapiens, UniProt Q9UBC3); experiment: AlphaScreen methyltransferase assay with […] SAM

Chain of DNMT3A (Q9Y6K1 whole entry, looked up): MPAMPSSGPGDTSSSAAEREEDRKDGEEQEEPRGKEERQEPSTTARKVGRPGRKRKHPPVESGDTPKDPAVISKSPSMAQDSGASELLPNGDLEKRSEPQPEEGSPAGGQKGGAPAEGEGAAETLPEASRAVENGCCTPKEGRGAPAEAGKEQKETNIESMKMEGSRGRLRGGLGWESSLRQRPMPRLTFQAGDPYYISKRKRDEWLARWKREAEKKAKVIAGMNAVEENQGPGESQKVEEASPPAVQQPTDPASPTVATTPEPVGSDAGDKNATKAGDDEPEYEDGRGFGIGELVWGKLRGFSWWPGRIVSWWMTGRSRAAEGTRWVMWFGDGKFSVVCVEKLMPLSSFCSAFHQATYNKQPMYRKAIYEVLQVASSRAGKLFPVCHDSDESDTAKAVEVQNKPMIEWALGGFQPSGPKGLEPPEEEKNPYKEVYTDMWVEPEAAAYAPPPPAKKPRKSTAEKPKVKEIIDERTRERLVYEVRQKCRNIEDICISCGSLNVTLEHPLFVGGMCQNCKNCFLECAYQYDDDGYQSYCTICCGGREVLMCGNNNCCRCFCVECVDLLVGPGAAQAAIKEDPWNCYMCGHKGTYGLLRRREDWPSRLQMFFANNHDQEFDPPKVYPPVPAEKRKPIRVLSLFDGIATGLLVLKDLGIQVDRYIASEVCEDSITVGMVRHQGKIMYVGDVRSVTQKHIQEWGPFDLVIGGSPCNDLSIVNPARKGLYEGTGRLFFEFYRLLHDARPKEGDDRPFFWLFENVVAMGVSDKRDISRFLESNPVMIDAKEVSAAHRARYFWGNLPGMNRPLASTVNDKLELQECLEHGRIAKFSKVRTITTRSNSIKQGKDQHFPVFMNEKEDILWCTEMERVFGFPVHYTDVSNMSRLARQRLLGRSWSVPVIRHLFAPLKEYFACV
Chain of DNMT1 (P26358 whole entry): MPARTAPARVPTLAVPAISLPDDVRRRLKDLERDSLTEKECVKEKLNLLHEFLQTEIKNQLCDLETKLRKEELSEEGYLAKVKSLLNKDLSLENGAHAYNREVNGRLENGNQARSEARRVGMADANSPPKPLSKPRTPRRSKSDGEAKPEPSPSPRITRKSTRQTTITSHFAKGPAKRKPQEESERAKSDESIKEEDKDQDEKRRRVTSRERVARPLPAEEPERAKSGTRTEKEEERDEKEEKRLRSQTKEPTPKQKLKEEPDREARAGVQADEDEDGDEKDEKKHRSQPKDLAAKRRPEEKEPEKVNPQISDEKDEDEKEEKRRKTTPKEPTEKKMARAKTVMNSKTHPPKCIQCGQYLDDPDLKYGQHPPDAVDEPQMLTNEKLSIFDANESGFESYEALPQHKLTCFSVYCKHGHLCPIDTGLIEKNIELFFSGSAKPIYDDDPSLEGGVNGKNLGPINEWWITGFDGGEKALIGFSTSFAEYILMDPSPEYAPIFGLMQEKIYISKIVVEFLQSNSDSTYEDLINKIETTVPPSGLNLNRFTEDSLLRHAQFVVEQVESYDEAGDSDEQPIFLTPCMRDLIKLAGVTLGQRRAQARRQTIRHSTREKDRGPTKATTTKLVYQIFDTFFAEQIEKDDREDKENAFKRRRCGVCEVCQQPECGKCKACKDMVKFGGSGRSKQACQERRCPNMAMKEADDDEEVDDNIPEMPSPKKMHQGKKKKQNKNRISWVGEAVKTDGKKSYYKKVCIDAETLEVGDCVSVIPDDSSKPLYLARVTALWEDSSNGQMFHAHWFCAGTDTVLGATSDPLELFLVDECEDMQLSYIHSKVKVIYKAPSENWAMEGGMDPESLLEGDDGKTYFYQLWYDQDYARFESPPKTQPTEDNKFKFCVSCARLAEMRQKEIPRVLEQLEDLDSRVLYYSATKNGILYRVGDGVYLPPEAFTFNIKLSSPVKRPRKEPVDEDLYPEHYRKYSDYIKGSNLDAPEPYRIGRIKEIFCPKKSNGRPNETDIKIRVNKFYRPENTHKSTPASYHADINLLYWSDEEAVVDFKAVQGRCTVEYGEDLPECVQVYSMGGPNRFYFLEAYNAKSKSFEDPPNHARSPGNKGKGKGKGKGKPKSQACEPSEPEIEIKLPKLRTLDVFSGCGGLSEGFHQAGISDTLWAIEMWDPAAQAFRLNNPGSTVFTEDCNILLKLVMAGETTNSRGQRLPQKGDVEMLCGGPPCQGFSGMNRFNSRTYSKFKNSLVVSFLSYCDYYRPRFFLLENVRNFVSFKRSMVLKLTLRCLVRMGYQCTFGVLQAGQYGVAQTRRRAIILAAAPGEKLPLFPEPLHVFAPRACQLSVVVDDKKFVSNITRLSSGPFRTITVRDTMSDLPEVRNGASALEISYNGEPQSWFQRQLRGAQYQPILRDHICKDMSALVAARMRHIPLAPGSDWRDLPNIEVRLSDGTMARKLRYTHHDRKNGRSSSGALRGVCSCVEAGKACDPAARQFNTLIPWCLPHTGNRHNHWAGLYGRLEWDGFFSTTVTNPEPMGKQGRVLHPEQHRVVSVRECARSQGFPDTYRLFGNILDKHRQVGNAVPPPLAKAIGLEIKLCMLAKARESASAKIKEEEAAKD

IC50 (DNMT1) | IC50 (DNMT3A) | IC50 (mTOR) | IC50 (DNMT3B) | SMILES
11.5 µM | 5.7 µM | 2600 nM | 5.2 µM | C/C=C(/C=O)[C@@H](CC=O)CC(=O)OCCc1ccc(O)c(O)c1 [DOA, decarboxymethyl oleuropein aglycone]
– | 5.8 µM | – | 2.8 µM | Nc1ncnc2c1ncn2[C@@H]1O[C@H](CSCC[C@H](N)C(=O)O)[C@@H](O)[C@H]1O [SAH, S-adenosyl-l-homocysteine, reference compound]
